Measured values as given in the CheMixHub viscosity set.
± gives the uncertainty stated by the source.

Test: xn = mol fraction of the nth substance listed

CCCOC(C)=O + c1ccccc1
viscosity (298.15 K, 101.3 kPa, x2 = 0.246): 0.537 ± 0.014 mPa·s
viscosity (298.15 K, 101.3 kPa, x2 = 0.4714): 0.537 ± 0.014 mPa·s
viscosity (298.15 K, 101.3 kPa, x2 = 0.6809): 0.551 ± 0.015 mPa·s
viscosity (298.15 K, 101.3 kPa, x2 = 0.8404): 0.563 ± 0.015 mPa·s
viscosity (303.15 K, 101.33 kPa, x2 = 0.0633): 0.514 ± 0.005 mPa·s
viscosity (303.15 K, 101.33 kPa, x2 = 0.1259): 0.515 ± 0.005 mPa·s
viscosity (303.15 K, 101.33 kPa, x2 = 0.1865): 0.513 ± 0.005 mPa·s
viscosity (303.15 K, 101.33 kPa, x2 = 0.3006): 0.512 ± 0.005 mPa·s
viscosity (303.15 K, 101.33 kPa, x2 = 0.4062): 0.513 ± 0.005 mPa·s
viscosity (303.15 K, 101.33 kPa, x2 = 0.5133): 0.514 ± 0.005 mPa·s
viscosity (303.15 K, 101.33 kPa, x2 = 0.6141): 0.517 ± 0.005 mPa·s
viscosity (303.15 K, 101.33 kPa, x2 = 0.7078): 0.524 ± 0.005 mPa·s
viscosity (303.15 K, 101.33 kPa, x2 = 0.7972): 0.529 ± 0.005 mPa·s
viscosity (303.15 K, 101.33 kPa, x2 = 0.8812): 0.539 ± 0.005 mPa·s
viscosity (303.15 K, 101.33 kPa, x2 = 0.9631): 0.551 ± 0.005 mPa·s
viscosity (308.15 K, 101.3 kPa, x2 = 0.246): 0.477 ± 0.013 mPa·s
viscosity (308.15 K, 101.3 kPa, x2 = 0.4714): 0.48 ± 0.013 mPa·s
viscosity (308.15 K, 101.3 kPa, x2 = 0.8404): 0.49 ± 0.013 mPa·s
viscosity (313.15 K, 101.33 kPa, x2 = 0.1951): 0.448 ± 0.005 mPa·s
viscosity (313.15 K, 101.33 kPa, x2 = 0.4024): 0.449 ± 0.005 mPa·s
viscosity (313.15 K, 101.33 kPa, x2 = 0.5082): 0.453 ± 0.005 mPa·s
viscosity (313.15 K, 101.33 kPa, x2 = 0.6029): 0.455 ± 0.005 mPa·s
viscosity (313.15 K, 101.33 kPa, x2 = 0.8029): 0.466 ± 0.005 mPa·s

ClC(Cl)(Cl)Cl + Clc1ccccc1
viscosity (298.15 K, 101 kPa, x2 = 0.2): 0.844 ± 0.0087 mPa·s
viscosity (298.15 K, 101 kPa, x2 = 0.4): 0.81 ± 0.0083 mPa·s
viscosity (298.15 K, 101 kPa, x2 = 0.6): 0.787 ± 0.008 mPa·s
viscosity (298.15 K, 101 kPa, x2 = 0.8): 0.769 ± 0.0077 mPa·s

CCN(CC)CC + CCC(C)O
viscosity (303.15 K, 101 kPa, x1 = 0.01087): 2.436 ± 0.016 mPa·s
viscosity (303.15 K, 101 kPa, x1 = 0.02221): 2.406 ± 0.016 mPa·s
viscosity (303.15 K, 101 kPa, x1 = 0.0326): 2.38 ± 0.016 mPa·s
viscosity (303.15 K, 101 kPa, x1 = 0.04176): 2.357 ± 0.016 mPa·s
viscosity (303.15 K, 101 kPa, x1 = 0.05247): 2.33 ± 0.015 mPa·s
viscosity (303.15 K, 101 kPa, x1 = 0.06249): 2.302 ± 0.015 mPa·s
viscosity (303.15 K, 101 kPa, x1 = 0.07262): 2.276 ± 0.015 mPa·s
viscosity (303.15 K, 101 kPa, x1 = 0.08419): 2.246 ± 0.015 mPa·s
viscosity (303.15 K, 101 kPa, x1 = 0.09512): 2.217 ± 0.015 mPa·s

CCN(CC)CC + ClC(Cl)Cl
viscosity (298.15 K, 101 kPa, x2 = 0.0983): 0.389 ± 0.008 mPa·s
viscosity (298.15 K, 101 kPa, x2 = 0.1979): 0.442 ± 0.008 mPa·s
viscosity (298.15 K, 101 kPa, x2 = 0.2978): 0.503 ± 0.008 mPa·s
viscosity (298.15 K, 101 kPa, x2 = 0.3989): 0.567 ± 0.009 mPa·s
viscosity (298.15 K, 101 kPa, x2 = 0.4988): 0.618 ± 0.009 mPa·s
viscosity (298.15 K, 101 kPa, x2 = 0.5829): 0.64 ± 0.01 mPa·s
viscosity (298.15 K, 101 kPa, x2 = 0.6859): 0.631 ± 0.01 mPa·s
viscosity (298.15 K, 101 kPa, x2 = 0.8008): 0.604 ± 0.009 mPa·s
viscosity (298.15 K, 101 kPa, x2 = 0.901): 0.574 ± 0.009 mPa·s

ClC(Cl)(Cl)Cl + CCC(C)=O
viscosity (298 K, 101.3 kPa, x1 = 0.1477): 0.485 ± 0.006 mPa·s
viscosity (298 K, 101.3 kPa, x1 = 0.2858): 0.543 ± 0.007 mPa·s
viscosity (298 K, 101.3 kPa, x1 = 0.4787): 0.648 ± 0.008 mPa·s
viscosity (298 K, 101.3 kPa, x1 = 0.629): 0.697 ± 0.008 mPa·s
viscosity (298 K, 101.3 kPa, x1 = 0.8296): 0.792 ± 0.008 mPa·s
viscosity (298.15 K, 101.33 kPa, x2 = 0.1954): 0.736 ± 0.0052 mPa·s
viscosity (298.15 K, 101.33 kPa, x2 = 0.397): 0.623 ± 0.0044 mPa·s
viscosity (298.15 K, 101.33 kPa, x2 = 0.405): 0.62 ± 0.0043 mPa·s
viscosity (298.15 K, 101.33 kPa, x2 = 0.499): 0.576 ± 0.004 mPa·s
viscosity (298.15 K, 101.33 kPa, x2 = 0.509): 0.576 ± 0.004 mPa·s
viscosity (298.15 K, 101.33 kPa, x2 = 0.745): 0.483 ± 0.0034 mPa·s
viscosity (298.15 K, 101.33 kPa, x2 = 0.752): 0.472 ± 0.0033 mPa·s
viscosity (318 K, 101.3 kPa, x1 = 0.1385): 0.3877 ± 0.016 mPa·s
viscosity (318 K, 101.3 kPa, x1 = 0.2858): 0.4379 ± 0.018 mPa·s
viscosity (318 K, 101.3 kPa, x1 = 0.4821): 0.5052 ± 0.02 mPa·s
viscosity (318 K, 101.3 kPa, x1 = 0.6311): 0.5625 ± 0.021 mPa·s
viscosity (318 K, 101.3 kPa, x1 = 0.8418): 0.6572 ± 0.024 mPa·s

Oc1nc(O)nc(O)n1 + c1ccncc1
viscosity (298.15 K, 101 kPa, x1 = 0.0199): 1.038 ± 0.21 mPa·s

COc1cccc(C)c1 + CCCCCOC(C)=O
viscosity (298.15 K, 101 kPa, x1 = 0.5): 0.8784 ± 0.0087 mPa·s

CCCCCCCCCCCCc1ccccc1S(=O)(=O)[O-].[Na+] + O
viscosity (293.15 K, 101 kPa, x1 = 5e-06): 0.9811 ± 0.059 mPa·s
viscosity (293.15 K, 101 kPa, x1 = 1e-05): 0.9821 ± 0.059 mPa·s
viscosity (293.15 K, 101 kPa, x1 = 2e-05): 0.9837 ± 0.06 mPa·s
viscosity (293.15 K, 101 kPa, x1 = 2.2e-05): 0.9859 ± 0.06 mPa·s
viscosity (293.15 K, 101 kPa, x1 = 2.7e-05): 0.9881 ± 0.06 mPa·s
viscosity (293.15 K, 101 kPa, x1 = 3.2e-05): 0.9903 ± 0.06 mPa·s
viscosity (293.15 K, 101 kPa, x1 = 3.8e-05): 0.9919 ± 0.06 mPa·s
viscosity (293.15 K, 101 kPa, x1 = 4.3e-05): 0.9944 ± 0.06 mPa·s
viscosity (293.15 K, 101 kPa, x1 = 4.9e-05): 0.9974 ± 0.06 mPa·s
viscosity (293.15 K, 101 kPa, x1 = 5.4e-05): 1.001 ± 0.061 mPa·s
viscosity (298.15 K, 101 kPa, x1 = 5e-06): 0.8497 ± 0.051 mPa·s
viscosity (298.15 K, 101 kPa, x1 = 1e-05): 0.8508 ± 0.051 mPa·s
viscosity (298.15 K, 101 kPa, x1 = 2e-05): 0.8522 ± 0.052 mPa·s
viscosity (298.15 K, 101 kPa, x1 = 2.2e-05): 0.8544 ± 0.052 mPa·s
viscosity (298.15 K, 101 kPa, x1 = 2.7e-05): 0.8558 ± 0.052 mPa·s
viscosity (298.15 K, 101 kPa, x1 = 3.2e-05): 0.857 ± 0.052 mPa·s
viscosity (298.15 K, 101 kPa, x1 = 3.8e-05): 0.8582 ± 0.052 mPa·s
viscosity (298.15 K, 101 kPa, x1 = 4.3e-05): 0.86 ± 0.052 mPa·s
viscosity (298.15 K, 101 kPa, x1 = 4.9e-05): 0.8614 ± 0.052 mPa·s
viscosity (298.15 K, 101 kPa, x1 = 5.4e-05): 0.864 ± 0.052 mPa·s
viscosity (303.15 K, 101 kPa, x1 = 5e-06): 0.7683 ± 0.046 mPa·s
viscosity (303.15 K, 101 kPa, x1 = 1e-05): 0.7687 ± 0.046 mPa·s
viscosity (303.15 K, 101 kPa, x1 = 2e-05): 0.77 ± 0.046 mPa·s
viscosity (303.15 K, 101 kPa, x1 = 2.2e-05): 0.7718 ± 0.047 mPa·s
viscosity (303.15 K, 101 kPa, x1 = 2.7e-05): 0.7744 ± 0.047 mPa·s
viscosity (303.15 K, 101 kPa, x1 = 3.2e-05): 0.7763 ± 0.047 mPa·s
viscosity (303.15 K, 101 kPa, x1 = 3.8e-05): 0.7812 ± 0.047 mPa·s
viscosity (303.15 K, 101 kPa, x1 = 4.3e-05): 0.7864 ± 0.048 mPa·s
viscosity (303.15 K, 101 kPa, x1 = 4.9e-05): 0.796 ± 0.048 mPa·s
viscosity (303.15 K, 101 kPa, x1 = 5.4e-05): 0.7988 ± 0.048 mPa·s
viscosity (308.15 K, 101 kPa, x1 = 5e-06): 0.6924 ± 0.042 mPa·s
viscosity (308.15 K, 101 kPa, x1 = 1e-05): 0.6932 ± 0.042 mPa·s
viscosity (308.15 K, 101 kPa, x1 = 2e-05): 0.6943 ± 0.042 mPa·s
viscosity (308.15 K, 101 kPa, x1 = 2.2e-05): 0.6958 ± 0.042 mPa·s
viscosity (308.15 K, 101 kPa, x1 = 2.7e-05): 0.6979 ± 0.042 mPa·s
viscosity (308.15 K, 101 kPa, x1 = 3.2e-05): 0.7013 ± 0.042 mPa·s
viscosity (308.15 K, 101 kPa, x1 = 3.8e-05): 0.7051 ± 0.043 mPa·s
viscosity (308.15 K, 101 kPa, x1 = 4.3e-05): 0.7074 ± 0.043 mPa·s
viscosity (308.15 K, 101 kPa, x1 = 4.9e-05): 0.7106 ± 0.043 mPa·s
viscosity (308.15 K, 101 kPa, x1 = 5.4e-05): 0.7123 ± 0.043 mPa·s
viscosity (313.15 K, 101 kPa, x1 = 5e-06): 0.6075 ± 0.037 mPa·s
viscosity (313.15 K, 101 kPa, x1 = 1e-05): 0.609 ± 0.037 mPa·s
viscosity (313.15 K, 101 kPa, x1 = 2e-05): 0.6102 ± 0.037 mPa·s
viscosity (313.15 K, 101 kPa, x1 = 2.2e-05): 0.6121 ± 0.037 mPa·s
viscosity (313.15 K, 101 kPa, x1 = 2.7e-05): 0.6138 ± 0.037 mPa·s
viscosity (313.15 K, 101 kPa, x1 = 3.2e-05): 0.6167 ± 0.037 mPa·s
viscosity (313.15 K, 101 kPa, x1 = 3.8e-05): 0.6203 ± 0.038 mPa·s
viscosity (313.15 K, 101 kPa, x1 = 4.3e-05): 0.623 ± 0.038 mPa·s
viscosity (313.15 K, 101 kPa, x1 = 4.9e-05): 0.6242 ± 0.038 mPa·s
viscosity (313.15 K, 101 kPa, x1 = 5.4e-05): 0.6262 ± 0.038 mPa·s
